Consider 5 compounds from patent US20220389515A1, “USE OF BIOMARKERS TO PREDICT CLINICAL SENSITIVITY TO 2-(4-CHLOROPHENYL)-N-((2-(2,6-DIOXOPIPERIDIN-3-YL)-1-OXOISOINDOLIN-5-YL)METHYL)-2,2-DIFLUOROACETAMIDE” (priority 2019, published 2022).

The conditions of data set [1]: relative humidity increased from about 0% to about 90% RH; cited from earlier work.
Another data set has as its target Ikaros (Homo sapiens, UniProt Q13422+Q96SW2). Conditions: U937-Cas9; 18 hours. How it is done:
Cells were treated with DMSO or Compound D in the presence of cycloheximide. FIGS. 8D and 8E show the immunoblot analysis of U937-Cas9 cells stably expressing HA-tagged GSPT1 and the indicated sgRNAs. Cells were treated with DMSO, Compound D (FIG. 8D) or pomalidomide (POM; FIG. 8E) at the indicated concentrations for 18 hours.
To understand whether the effect of mTOR activation on Compound D-induced GSPT1 degradation can be ascribed to an increased rate of GSPT1 protein synthesis and/or a decreased rate of GSPT1 degradation, the change of GSPT1 protein half-life in response to TSC1 or TSC2 loss in the presence or absence of Compound D was determined.

A further data set has as its target T1, GSPT1 (Homo sapiens, UniProt P15170).
T1 construct: endogenous in cells; host or cells: KG-1 (TMT proteomics); KG1, U937 / U937-Cas9, MOLM-13, OCI-AML2 (immunoblots)
The experiment in a line: Immunoblot analysis of Compound D-induced GSPT1 degradation in AML cells. Conditions: U937 parental, TSC1-/- and TSC2-/- cells. Format: cell-based. As for the experimental part:
FIG. 2A illustrates the volcano plot of differentially abundant proteins in response to Compound D treatment relative to the DMSO control. KG1 cells were treated with DMSO or 100 nM Compound D for 4 hours and subjected to TMT proteomics analysis. The X-axis denotes the log 2-fold change of Compound D versus the DMSO control for each protein. P-values were corrected for multiple hypothesis testing using the Benjamini-Hoschberg method to arrive at an adjusted-P-value (adj-P, also known as a false discovery rate). The y-axis denotes the −log 10 (adj-P) values indicating statistical significance such that proteins lying above the dotted red line are statistically significant findings with adjusted P-values<0.05. FIG. 2B illustrates the immunoblot analysis of KG1 and U937 cells treated with DMSO or Compound D for 4 hours. Where indicated, cells were pretreated with Bortezomib or MLN4924 for 30 minutes. FIGS. 2C and 2D illustrate the immunoblot analysis (FIG. 2C) and cell proliferation (FIG. 2D) of U937-Cas9 parental cells or cells stably transduced with lentiviral vectors expressing a non-targeting sgRNA (sgNT-1), a sgRNA targeting a non-coding region (sgNC-8), or a sgRNA targeting CRBN(sgCRBN-8). Cells were treated with DMSO or Compound D at indicated concentrations. FIGS. 2E and 2F illustrate the immunoblot analysis (left panel) and cell proliferation (right panel) of MOLM-13 (FIG. 2E) and OCI-AML2 (FIG. 2F) parental and CRBN−/− cells. Cells were treated with DMSO or Compound D at indicated concentrations. Results shown in all figure panels are representative of three biological replicates. Data in FIGS. 2D, 2E (right panel), and 2F (right panel) are shown as mean±SD, n=3 technical replicates.
FIG. 3A illustrates FLAG-HA tagged cereblon wild-type (FLAG-HA-CRBN) or Y384A/W386A mutant (FLAG-HA-YWAA) produced in 293FT CRBN−/− cells was used to capture V5 tagged GSPT1 (GSPT1-V5) and V5 tagged IKZF1 (IKZF1-V5) transiently expressed in 293FT CRBN−/− cells. […] FIG. 3B illustrates the surface representation of GSPT1 in complex with cereblon, DDB1 and Compound D, with DDB1 shown in purple, cereblon in blue, and GSPT1 in orange. The position of Compound D is shown with a white arrow. FIG. 3C illustrates the Fo-Fc omit electron density (green mesh) for Compound D (yellow sticks) contoured at 3.06. FIG. 3D illustrates GSPT1's interaction with cereblon is mediated by a β-hairpin loop. Hydrogen bond interactions between cereblon and the GPST1 β-hairpin are shown as yellow dashes. FIG. 3E illustrates details of the binding interface between cereblon and GSPT1. Compound D is represented as yellow sticks. Predicted polar interactions between Compound D and cereblon are shown as yellow dashes. FIG. 3F illustrates the immunoblot analysis of U937 parental cells or cells stably expressing HA-GSPT1-G575N. Cells were treated with DMSO or Compound D at the indicated concentrations. FIGS. 3G and 311 illustrate the immunoblot analysis (left panel) and cell proliferation (right panel) of MOLM-13 (FIG. 3G) and OCI-AML2 (FIG. 311) parental cells and cells stably expressing HA tagged GSPT1-G575N. Cells were treated with DMSO or Compound D at indicated concentrations.
Like all other cereblon modulators, Compound D contains a glutarimide ring (FIG. 1A) that can bind cereblon and redirect it to target neosubstrates for degradation. Thus, the effect of Compound D on the global proteome in AML cell line KG-1 was assessed using tandem mass tag (TMT) quantitative mass spectrometry.
Specifically, U937 cells stably expressing Cas9 were infected with lentiviral vectors constitutively expressing RFP and non-targeting or non-coding sgRNA (sgNT) controls, or sgRNAs targeting TSC1 or TSC2. Infected cells were selected with 1 μg/ml puromycin. […]
On the technique in general: A western blot detects proteins with antibodies after separation by electrophoresis.

Ikaros, sequence (Q96SW2 whole entry): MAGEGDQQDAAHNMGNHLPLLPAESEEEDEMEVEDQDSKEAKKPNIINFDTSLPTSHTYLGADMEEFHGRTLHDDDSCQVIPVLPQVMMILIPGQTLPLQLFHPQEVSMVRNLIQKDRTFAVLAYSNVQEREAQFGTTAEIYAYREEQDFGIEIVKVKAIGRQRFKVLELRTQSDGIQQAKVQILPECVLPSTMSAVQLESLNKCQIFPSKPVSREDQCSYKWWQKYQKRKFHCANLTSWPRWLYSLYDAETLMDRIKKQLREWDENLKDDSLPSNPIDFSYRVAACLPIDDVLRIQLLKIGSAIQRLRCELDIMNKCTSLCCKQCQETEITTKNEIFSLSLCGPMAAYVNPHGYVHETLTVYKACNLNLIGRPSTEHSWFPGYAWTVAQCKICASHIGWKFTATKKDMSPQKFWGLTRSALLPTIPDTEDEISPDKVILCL
Ikaros, sequence (Q13422 whole entry): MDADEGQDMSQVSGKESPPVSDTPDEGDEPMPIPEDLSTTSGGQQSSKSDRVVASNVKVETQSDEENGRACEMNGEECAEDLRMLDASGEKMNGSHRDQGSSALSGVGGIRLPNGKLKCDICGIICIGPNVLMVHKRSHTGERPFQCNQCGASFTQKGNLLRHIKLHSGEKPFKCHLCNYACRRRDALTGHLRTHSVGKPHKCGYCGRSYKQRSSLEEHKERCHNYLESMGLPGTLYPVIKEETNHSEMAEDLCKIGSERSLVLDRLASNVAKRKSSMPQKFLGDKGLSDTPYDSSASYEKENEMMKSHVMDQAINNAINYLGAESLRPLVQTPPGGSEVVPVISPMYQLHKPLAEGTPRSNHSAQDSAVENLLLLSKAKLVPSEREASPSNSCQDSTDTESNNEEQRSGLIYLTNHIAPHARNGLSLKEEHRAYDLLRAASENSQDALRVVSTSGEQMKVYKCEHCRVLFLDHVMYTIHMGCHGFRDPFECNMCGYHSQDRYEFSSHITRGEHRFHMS
Ikaros, sequence (Q16531 whole entry, further chain): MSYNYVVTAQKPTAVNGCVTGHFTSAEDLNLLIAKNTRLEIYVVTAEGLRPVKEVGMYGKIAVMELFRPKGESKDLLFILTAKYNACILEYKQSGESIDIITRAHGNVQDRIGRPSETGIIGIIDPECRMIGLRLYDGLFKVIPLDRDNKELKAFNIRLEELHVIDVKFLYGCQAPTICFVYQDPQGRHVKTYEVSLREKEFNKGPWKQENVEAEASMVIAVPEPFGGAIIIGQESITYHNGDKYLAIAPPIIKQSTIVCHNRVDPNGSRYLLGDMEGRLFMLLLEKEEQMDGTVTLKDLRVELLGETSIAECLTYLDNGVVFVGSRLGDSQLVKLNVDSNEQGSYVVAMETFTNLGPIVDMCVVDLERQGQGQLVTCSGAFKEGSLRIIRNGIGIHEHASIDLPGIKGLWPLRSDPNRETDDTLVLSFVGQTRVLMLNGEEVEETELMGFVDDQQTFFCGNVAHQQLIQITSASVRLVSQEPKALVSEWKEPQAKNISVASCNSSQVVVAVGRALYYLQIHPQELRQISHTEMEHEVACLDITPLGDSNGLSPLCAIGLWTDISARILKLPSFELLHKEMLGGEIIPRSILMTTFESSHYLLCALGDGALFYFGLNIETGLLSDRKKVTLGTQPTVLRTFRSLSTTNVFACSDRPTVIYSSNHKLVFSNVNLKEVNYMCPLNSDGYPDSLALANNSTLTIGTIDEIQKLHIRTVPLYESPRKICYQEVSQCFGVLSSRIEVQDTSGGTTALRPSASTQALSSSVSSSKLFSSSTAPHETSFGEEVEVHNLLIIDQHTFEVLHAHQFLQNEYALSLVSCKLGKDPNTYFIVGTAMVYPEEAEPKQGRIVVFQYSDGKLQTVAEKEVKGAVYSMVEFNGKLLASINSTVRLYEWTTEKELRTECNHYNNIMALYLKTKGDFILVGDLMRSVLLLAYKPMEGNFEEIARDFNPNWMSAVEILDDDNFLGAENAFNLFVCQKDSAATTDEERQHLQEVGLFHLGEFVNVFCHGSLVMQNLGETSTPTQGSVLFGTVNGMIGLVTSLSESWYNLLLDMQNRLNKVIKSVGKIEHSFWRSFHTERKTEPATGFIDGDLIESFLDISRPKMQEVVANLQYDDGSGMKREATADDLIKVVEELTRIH
T1 sequence (P15170 1-637 isoform P15170-3): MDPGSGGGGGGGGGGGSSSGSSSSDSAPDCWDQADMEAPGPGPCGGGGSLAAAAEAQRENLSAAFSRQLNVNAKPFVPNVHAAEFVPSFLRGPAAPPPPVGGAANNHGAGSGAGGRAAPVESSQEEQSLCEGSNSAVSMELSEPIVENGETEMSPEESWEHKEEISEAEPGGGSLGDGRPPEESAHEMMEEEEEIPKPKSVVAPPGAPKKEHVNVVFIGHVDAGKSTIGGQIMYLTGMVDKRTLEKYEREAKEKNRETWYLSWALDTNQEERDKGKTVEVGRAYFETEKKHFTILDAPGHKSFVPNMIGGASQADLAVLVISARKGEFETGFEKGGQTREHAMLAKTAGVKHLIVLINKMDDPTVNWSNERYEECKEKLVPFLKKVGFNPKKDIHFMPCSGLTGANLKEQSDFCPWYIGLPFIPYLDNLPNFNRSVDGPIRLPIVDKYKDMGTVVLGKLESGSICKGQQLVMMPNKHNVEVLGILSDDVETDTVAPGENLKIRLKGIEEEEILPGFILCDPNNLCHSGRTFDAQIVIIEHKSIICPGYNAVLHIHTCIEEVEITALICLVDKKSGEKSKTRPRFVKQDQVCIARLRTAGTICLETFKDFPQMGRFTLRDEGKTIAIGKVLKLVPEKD
T1 sequence (Q96SW2 whole entry partner): as the sequence (Q96SW2 whole entry) above
T1 sequence (Q16531 2-1140 partner): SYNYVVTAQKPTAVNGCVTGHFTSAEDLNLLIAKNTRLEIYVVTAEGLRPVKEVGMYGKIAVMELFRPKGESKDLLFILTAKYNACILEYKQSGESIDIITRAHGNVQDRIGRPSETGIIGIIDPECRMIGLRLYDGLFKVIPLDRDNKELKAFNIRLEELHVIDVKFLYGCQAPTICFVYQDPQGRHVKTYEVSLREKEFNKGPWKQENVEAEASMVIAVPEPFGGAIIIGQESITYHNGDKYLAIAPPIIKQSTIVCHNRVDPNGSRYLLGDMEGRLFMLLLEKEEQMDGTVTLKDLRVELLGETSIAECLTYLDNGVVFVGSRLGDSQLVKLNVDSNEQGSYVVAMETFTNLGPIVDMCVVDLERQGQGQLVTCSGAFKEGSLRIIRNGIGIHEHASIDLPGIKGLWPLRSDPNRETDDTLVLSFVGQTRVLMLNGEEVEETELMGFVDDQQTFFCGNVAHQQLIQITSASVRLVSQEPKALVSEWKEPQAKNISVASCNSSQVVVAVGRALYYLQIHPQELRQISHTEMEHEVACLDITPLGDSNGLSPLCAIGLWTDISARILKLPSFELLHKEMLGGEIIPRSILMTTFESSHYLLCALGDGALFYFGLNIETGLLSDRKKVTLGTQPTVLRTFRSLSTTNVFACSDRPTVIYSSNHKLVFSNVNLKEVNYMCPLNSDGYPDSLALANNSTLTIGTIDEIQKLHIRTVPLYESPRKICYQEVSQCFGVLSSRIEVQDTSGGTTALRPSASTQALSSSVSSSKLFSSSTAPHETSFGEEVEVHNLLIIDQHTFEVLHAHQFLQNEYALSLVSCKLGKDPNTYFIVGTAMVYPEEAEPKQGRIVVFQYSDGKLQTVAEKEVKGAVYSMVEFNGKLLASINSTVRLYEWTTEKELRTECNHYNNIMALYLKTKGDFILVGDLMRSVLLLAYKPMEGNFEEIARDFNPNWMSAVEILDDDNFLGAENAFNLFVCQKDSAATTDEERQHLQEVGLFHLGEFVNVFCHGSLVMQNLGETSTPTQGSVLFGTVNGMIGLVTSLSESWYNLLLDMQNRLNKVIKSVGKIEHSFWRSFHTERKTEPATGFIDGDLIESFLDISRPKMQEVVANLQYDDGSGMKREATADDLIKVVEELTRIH

Take `O=C1CCC(N2Cc3cc(CNC(=O)C(F)(F)c4ccc(Cl)cc4)ccc3C2=O)C(=O)N1` (centres unmarked) [Form A, 2-(4-chlorophenyl)-N-((2-(2,6-dioxopiperidin-3-yl)-1-oxoisoindolin-5-yl)methyl)-2,2-difluoroacetamide]: in data set [1], the water uptake entry was “about 1.2 % w/w”.
On to `Nc1cccc2c1C(=O)N(C1CCC(=O)NC1=O)C2=O` (centres unmarked) [pomalidomide], for which the “degradation of Ikaros under TSC1 or TSC2 deficiency” value at Ikaros was “did not affect the degradation of Ikaros by pomalidomide”.
`C[C@@H]1C[C@@H]([C@H](O)CC2CC(=O)NC(=O)C2)C(=O)[C@@H](C)C1` [cycloheximide, reference compound]: the “protein level of GSPT1, cycloheximide treatment alone” value at GSPT1 is reported as “did not show much effect on the protein level of GSPT1”.
Consider `O=C1CCC(N2Cc3cc(CNC(=O)C(F)(F)c4ccc(Cl)cc4)ccc3C2=O)C(=O)N1` (centres unmarked) [Form B, 2-(4-chlorophenyl)-N-((2-(2,6-dioxopiperidin-3-yl)-1-oxoisoindolin-5-yl)methyl)-2,2-difluoroacetamide], for which the water uptake result in data set [1] was “about 1.4 % w/w”.
In the case of `O=C1CCC(N2Cc3cc(CNC(=O)C(F)(F)c4ccc(Cl)cc4)ccc3C2=O)C(=O)N1` (centres unmarked) [Form C, 2-(4-chlorophenyl)-N-((2-(2,6-dioxopiperidin-3-yl)-1-oxoisoindolin-5-yl)methyl)-2,2-difluoroacetamide], in data set [1], the water uptake result is recorded as “about 0.6 % w/w”.
